The values that follow come from US20240246934A1, “QUINAZOLINE-BASED COMPOUND, COMPOSITION, AND APPLICATION OF QUINAZOLINE-BASED COMPOUND” (BEIJING SCITECH-MQ PHARMACEUTICALS LIMITED, priority 2021, published 2024).

SMILES strings stand for the structures.

One data set addresses T1, HER2 kinase (Homo sapiens, UniProt P04626).
T1 construct: purchased Carna Biosciences 08-016
Put plainly: HER2 kinase assay (ULight/PT66 TR-FRET). Type of data set: biochemical. On the procedure:
(§1) Preparation of compound solution: The assay compound was dissolved in DMSO to form a 10 mM stock solution. Prior to use, the compound was diluted to 0.25 mM in DMSO (100 times the final concentration of the diluent) and then subjected to a 3-fold concentration gradient dilution to obtain a total of 11 concentrations. The solution was diluted with buffer to a diluent with 4× the final concentration when the compound was added.
(§2) HER2 kinase assay: buffer was prepared, and 40 nM 4×Her2 kinase solution, 40 μM 4×ATP solution, and 400 nM 4×ULight™-labeled Ploy GT Peptide substrate solution were prepared using the buffer. After the preparation was completed, the enzyme was mixed with different concentrations of compounds pre-prepared by dilution, and the mixture was left to stand at room temperature for 5 min. Each concentration was performed in duplicate. The corresponding substrate and ATP were added and the mixture was reacted at room temperature for 120 minutes (with negative and positive controls). After completion of the reaction, PT66 detection antibody was added. The mixture was incubated at room temperature for 60 minutes, and then detected by Envision.
(§3) Compound concentrations and corresponding inhibition rates were input into GraphPad Prism for processing to calculate IC50 values.
(In TR-FRET formats the signal depends on donor and acceptor labels being close together.)

In the next data set the target is EGFR^WT kinase (Homo sapiens, UniProt P00533). Put plainly: EGFR^WT kinase assay (ULight/PT66 TR-FRET). Type of data set: biochemical. On the procedure: as §1
EGFR^WT kinase, sequence (P00533 25-1210): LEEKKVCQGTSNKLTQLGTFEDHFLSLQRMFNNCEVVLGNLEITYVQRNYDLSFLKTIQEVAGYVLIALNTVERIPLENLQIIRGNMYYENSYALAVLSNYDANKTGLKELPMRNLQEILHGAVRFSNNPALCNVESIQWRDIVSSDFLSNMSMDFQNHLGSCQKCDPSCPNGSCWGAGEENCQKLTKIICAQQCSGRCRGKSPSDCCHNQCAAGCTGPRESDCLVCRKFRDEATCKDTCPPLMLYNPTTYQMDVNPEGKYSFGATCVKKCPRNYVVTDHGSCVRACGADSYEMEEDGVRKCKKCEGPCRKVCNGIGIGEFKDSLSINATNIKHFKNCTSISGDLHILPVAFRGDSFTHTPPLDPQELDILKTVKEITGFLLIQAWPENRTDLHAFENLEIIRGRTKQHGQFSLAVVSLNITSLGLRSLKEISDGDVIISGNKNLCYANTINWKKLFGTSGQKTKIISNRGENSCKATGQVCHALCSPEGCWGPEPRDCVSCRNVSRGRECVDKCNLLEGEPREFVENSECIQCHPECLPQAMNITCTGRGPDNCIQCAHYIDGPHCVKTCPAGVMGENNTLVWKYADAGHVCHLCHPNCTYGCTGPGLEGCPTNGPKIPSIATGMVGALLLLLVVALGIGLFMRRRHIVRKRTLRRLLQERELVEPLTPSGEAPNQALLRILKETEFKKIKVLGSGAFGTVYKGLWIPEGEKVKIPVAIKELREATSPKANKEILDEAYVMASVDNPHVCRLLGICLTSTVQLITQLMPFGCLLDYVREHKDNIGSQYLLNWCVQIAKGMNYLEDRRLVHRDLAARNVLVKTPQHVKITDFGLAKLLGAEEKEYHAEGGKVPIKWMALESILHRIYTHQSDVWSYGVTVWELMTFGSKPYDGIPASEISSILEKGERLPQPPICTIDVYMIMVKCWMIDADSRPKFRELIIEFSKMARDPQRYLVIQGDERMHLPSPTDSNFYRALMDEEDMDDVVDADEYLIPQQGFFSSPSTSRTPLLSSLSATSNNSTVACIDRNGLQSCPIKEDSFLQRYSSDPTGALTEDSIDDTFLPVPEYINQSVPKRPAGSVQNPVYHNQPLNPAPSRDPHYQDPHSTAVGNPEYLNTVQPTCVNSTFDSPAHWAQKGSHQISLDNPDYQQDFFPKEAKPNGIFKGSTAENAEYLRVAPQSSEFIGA
as §2, with “EGFR^WT kinase assay:” for “HER2 kinase assay:”, “prepared, and 3.48 nM 4×EGFR” for “prepared, and 40 nM 4×Her2”, “3.48 nM 4×EGFR kinase solution,” for “40 nM 4×Her2 kinase solution,”, “kinase solution, 600 μM 4×ATP” for “kinase solution, 40 μM 4×ATP”, “nM 4×ULight™-labeled JAK-1 (Try1023) Peptide substrate” for “nM 4×ULight™-labeled Ploy GT Peptide substrate”
as §3

In data set [1] the target is Ba/F3 HER2 A775_G776insYVMA cells (Homo sapiens, UniProt P04626, DUP772-775, cells depend on it). Put plainly: Inhibition of cell proliferation, CTG method, Ba/F3 HER2 A775_G776insYVMA. Type of data set: cell-based. Particulars: 72 hours, read-out: Ba/F3 HER2 A775-G776insYVMA IC50. From the text: The present application examined the in vitro anti-proliferative activity of the compounds of the present disclosure against in vitro cultured BT474, NCI-N87, Ba/F3-EGFR-VIII and Ba/F3 HER2 A775_G776insYVMA and Ba/F3 EGFR D770_N771insSVD cell lines by CTG method.
Ba/F3 HER2 A775_G776insYVMA cells, sequence (P04626 with tags, fused parts or gaps DUP772-775): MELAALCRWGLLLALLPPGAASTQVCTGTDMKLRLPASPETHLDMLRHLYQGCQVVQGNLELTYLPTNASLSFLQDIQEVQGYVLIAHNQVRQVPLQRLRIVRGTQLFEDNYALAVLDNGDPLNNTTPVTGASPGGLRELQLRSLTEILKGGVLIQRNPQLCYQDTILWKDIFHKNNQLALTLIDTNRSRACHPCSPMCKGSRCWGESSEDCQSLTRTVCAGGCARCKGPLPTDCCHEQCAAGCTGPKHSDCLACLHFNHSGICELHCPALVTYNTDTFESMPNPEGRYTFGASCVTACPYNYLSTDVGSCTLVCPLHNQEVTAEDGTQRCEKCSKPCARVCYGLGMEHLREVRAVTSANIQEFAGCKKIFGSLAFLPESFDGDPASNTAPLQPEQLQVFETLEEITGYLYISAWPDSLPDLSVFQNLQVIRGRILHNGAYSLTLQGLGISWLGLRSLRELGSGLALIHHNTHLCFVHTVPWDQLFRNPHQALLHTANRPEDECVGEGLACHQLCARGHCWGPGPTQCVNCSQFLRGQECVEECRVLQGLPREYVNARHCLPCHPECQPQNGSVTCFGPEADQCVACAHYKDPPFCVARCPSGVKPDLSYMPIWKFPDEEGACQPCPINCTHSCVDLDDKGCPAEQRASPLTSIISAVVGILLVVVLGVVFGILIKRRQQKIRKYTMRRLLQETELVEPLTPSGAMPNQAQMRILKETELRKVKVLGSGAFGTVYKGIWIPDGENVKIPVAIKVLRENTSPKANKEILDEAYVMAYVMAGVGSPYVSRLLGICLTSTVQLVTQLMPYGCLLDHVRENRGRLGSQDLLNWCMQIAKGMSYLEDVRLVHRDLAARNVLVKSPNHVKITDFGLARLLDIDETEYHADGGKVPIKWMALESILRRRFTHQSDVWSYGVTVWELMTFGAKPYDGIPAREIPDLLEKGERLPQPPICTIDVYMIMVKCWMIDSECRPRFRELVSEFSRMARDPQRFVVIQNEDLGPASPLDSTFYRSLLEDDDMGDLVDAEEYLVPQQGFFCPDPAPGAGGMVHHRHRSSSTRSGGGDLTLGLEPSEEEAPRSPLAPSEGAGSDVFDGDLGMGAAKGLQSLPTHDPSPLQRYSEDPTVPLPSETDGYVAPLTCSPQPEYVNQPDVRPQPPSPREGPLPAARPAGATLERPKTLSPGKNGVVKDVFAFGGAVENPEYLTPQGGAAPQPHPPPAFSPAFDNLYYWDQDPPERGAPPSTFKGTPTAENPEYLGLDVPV
Cell lines: BT474 (from the cell bank of Chinese Academy of Sciences), NCI-N87 (from ATCC), Ba/F3-EGFR-VIII, Ba/F3 HER2 A775_G776insYVMA and Ba/F3 EGFR D770_N771insSVD (all from KYinno Biotechnology (Beijing) Co., Ltd.); all of the above cells were cultured with RPMI1640 medium containing 10% fetal bovine serum, 100 U/mL penicillin, and 100 μg/mL streptomycin in the culture process.
1. The assay compound was dissolved with DMSO to form a stock solution and a gradient dilution was performed, followed by dilution with the corresponding medium to obtain a solution with 5-fold working concentration.
2. Cells in logarithmic growth phase were adjusted to specific cell densities by dilution with culture medium, and 80 μL of cell suspension was added to a 96-well plate, such that plating densities of cells of BT474, NCI-N87, Ba/F3-EGFR-VIII, Ba/F3 HER2 A775_G776insYVMA and Ba/F3 EGFR D770_N771insSVD were all 3000 cells/well. The cells of Ba/F3-EGFR-VIII, Ba/F3 HER2 A775_G776insYVMA and Ba/F3 EGFR D770_N771insSVD were used directly in the next step (treatment with compound), whereas the BT474 and NCI-N87 needed to be cultured overnight in a 37° C., 5% carbon dioxide gas incubator to adhere to the wall, and then treated with compounds.
3. […] The highest concentration of the assayed compound was 10 μM, 4-fold serial dilution, a total of 9 concentrations, and duplicate wells. A control group without compound was also set up.
4. The cells were cultured for another 72 hours, and then cell viability was detected by CTG assay kit. Signal values were read with a multifunctional plate reader (Perkin Elmer). GraphPad Prism software was used to create a dose-response curve and IC50 was calculated.

The nature of data set [2]: Pharmacokinetics in SD rats, single intravenous injection and oral administration. The data set is classed as in vivo, SD rat. On the procedure: In this assay, the pharmacokinetic characteristics of the compounds of the present application were assayed after administration of some of the compounds of the present application to SD rats by single oral administration and intravenous injection. 1. […] The mixture was stirred, vortexed and/or sonicated. Once a solution was obtained, the vehicle was gradually added to a final volume to reach the target concentration. The solution was vortexed, and sonicated to obtain a homogeneous solution. The solution was filtered through a 0.22 μm PVDF membrane. 2. […] The mixture was stirred, vortexed and/or sonicated. Once a solution was obtained, the vehicle was gradually added to a final volume to reach the target concentration. The solution was vortexed, and sonicated to obtain a homogeneous solution. […] Meanwhile, the IV group was not fasted and the PO group was fasted overnight (>12 hrs) and given food 2 hrs after drug administration. All animals had free access to water. The dosing regimen and pharmacokinetic sampling regimen are given in Table 6 and Table 7 below, respectively. […] Rats were administered according to the above regimen, and blood and brain tissue samples were collected and processed at predetermined time points (collection and processing were performed according to conventional methods in the art). […] The supernatant was diluted 2-fold with ultra-pure water, and the samples were analyzed by LC/MS. Pharmacokinetic parameters was calculated using WinNonlin software. The following pharmacokinetic parameters was calculated from the plasma drug concentration-time data: CL (clearance); Vd (apparent volume of distribution); T1/2 (elimination half-life time); Cmax (peak concentration); Tmax (time to peak); AUC (area under plasma drug concentration-time curve); MRT (mean retention time); F % (bioavailability).

The mark [3] stands for this setting: SD, rat, whole blood, IV 3 mg/kg.

Usually IC50 stands for the concentration that inhibits the measured activity by half. Higher therefore signals a need for much substance. The term AUC(0-inf) denotes total exposure, with the tail of the curve extrapolated. For orientation: AUC(0-t) means exposure summed from dosing to a finite time, without extrapolation to infinity. A high value points to high exposure. The term half-life denotes the time in which the quantity being followed falls by half. A higher half-life goes with slow decline.

T1 sequence (P04626 23-1255): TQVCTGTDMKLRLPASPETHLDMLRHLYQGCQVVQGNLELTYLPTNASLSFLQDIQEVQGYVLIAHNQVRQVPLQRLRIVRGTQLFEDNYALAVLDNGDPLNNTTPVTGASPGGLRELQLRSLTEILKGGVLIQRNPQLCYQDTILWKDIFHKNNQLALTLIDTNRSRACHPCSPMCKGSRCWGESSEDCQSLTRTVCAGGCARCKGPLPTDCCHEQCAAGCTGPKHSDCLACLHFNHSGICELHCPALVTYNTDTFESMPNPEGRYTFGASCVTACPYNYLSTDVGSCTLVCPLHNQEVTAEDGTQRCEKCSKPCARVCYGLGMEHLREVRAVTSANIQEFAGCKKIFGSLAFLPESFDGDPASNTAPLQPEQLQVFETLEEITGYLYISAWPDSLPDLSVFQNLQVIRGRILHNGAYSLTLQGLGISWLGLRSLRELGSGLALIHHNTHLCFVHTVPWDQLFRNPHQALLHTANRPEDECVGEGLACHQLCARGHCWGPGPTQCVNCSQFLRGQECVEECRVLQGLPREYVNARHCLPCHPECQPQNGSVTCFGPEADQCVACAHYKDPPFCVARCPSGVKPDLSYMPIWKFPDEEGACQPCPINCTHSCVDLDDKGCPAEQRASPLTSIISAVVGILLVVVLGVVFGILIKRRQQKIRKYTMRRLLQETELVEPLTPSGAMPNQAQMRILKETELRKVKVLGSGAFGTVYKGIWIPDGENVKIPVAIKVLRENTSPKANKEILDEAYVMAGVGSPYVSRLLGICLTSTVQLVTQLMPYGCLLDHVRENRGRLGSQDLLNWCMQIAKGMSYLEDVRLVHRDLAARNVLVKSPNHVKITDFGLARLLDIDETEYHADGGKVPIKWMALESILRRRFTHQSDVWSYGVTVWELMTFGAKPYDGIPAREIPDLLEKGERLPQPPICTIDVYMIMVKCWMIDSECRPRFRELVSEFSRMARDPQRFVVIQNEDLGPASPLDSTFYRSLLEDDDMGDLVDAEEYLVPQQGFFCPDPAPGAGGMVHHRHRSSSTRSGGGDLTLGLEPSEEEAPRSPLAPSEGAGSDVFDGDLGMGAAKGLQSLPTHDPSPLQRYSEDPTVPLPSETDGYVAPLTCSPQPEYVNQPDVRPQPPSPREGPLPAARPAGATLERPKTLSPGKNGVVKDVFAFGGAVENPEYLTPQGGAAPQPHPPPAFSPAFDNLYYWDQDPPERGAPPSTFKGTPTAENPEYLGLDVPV

With `COCCN1CCC[C@@H]1/C=C/C(=O)Nc1ccc2ncnc(Nc3ccc(OCc4ccccn4)c(Cl)c3)c2c1OC` [Example 25, (R,E)-N-(4-((3-chloro-4-(pyridin-2-ylmethoxy)phenyl)amino)-5-methoxyquinazolin-6-yl)-3-(1-(2-methoxyethyl)pyrrolidin-2-yl)acrylamide], the figures for the concentration for half-maximal inhibition (IC50) against HER2 kinase and on EGFR^WT kinase were less than 10 nM and 100 to 1000 nM, respectively. For the same compound, in data set [1], the GI50 lay within 1 to 5 nM.

For the compound `CN1CCC[C@@H]1/C=C/C(=O)Nc1ccc2ncnc(Nc3ccc(OCc4ccccn4)c(Cl)c3)c2c1OCCC(C)(C)O` [Example 16, (R,E)-N-(4-((3-chloro-4-(pyridin-2-ylmethoxy)phenyl)amino)-5-(3-hydroxy-3-methylbutoxy)quinazolin-6-yl)-3-(1-methylpyrrolidin-2-yl)acrylamide], the IC50 against HER2 kinase and on EGFR^WT kinase was less than 10 nM each time. In data set [1], the GI50 lay in the range of 1 to 5 nM.

Consider `[2H]C([2H])([2H])Oc1c(NC(=O)/C=C/[C@H]2CCCN2CC)ccc2ncnc(Nc3ccc(OCc4ccccn4)c(Cl)c3)c12` [Example 34, (R,E)-N-(4-((3-chloro-4-(pyridin-2-ylmethoxy)phenyl)amino)-5-(methoxy-d3)quinazolin-6-yl)-3-(1-ethylpyrrolidin-2-yl)acrylamide], for which the IC50 on HER2 kinase and against EGFR^WT kinase was less than 10 nM each time. Also, the GI50 in data set [1] fell in the range of 1 to 5 nM.

For the compound `CC(C)COc1c(NC(=O)/C=C/[C@H]2CCCN2C)ccc2ncnc(Nc3ccc(OCc4ccccn4)c(Cl)c3)c12` [Example 14, (R,E)-N-(4-((3-chloro-4-(pyridin-2-ylmethoxy)phenyl)amino)-5-isobutoxyquinazolin-6-yl)-3-(1-methylpyrrolidin-2-yl)acrylamide], the IC50 against HER2 kinase and at EGFR^WT kinase was less than 10 nM throughout. In data set [1], the GI50 was 1 to 5 nM.

For `COc1c(NC(=O)/C=C/[C@H]2CCCN2C2CCC2)ccc2ncnc(Nc3ccc(OCc4ccccn4)c(Cl)c3)c12` [Example 42, (R,E)-N-(4-((3-chloro-4-(pyridin-2-ylmethoxy)phenyl)amino)-5-methoxyquinazolin-6-yl)-3-(1-cyclobutylpyrrolidin-2-yl)acrylamide], the IC50 was less than 10 nM on HER2 kinase and 100 to 1000 nM against EGFR^WT kinase.

Regarding `CN1CCC[C@@H]1/C=C/C(=O)Nc1ccc2ncnc(Nc3ccc(OCc4ccccn4)c(Cl)c3)c2c1OC1CCC1` [Example 39, (R,E)-N-(4-((3-chloro-4-(pyridin-2-ylmethoxy)phenyl)amino)-5-cyclobutoxyquinazolin-6-yl)-3-(1-methylpyrrolidin-2-yl)acrylamide], the IC50 against HER2 kinase and against EGFR^WT kinase was less than 10 nM throughout. In addition, the GI50 in data set [1] was 1 to 5 nM.

At HER2 kinase, `CN1CCC[C@@H]1/C=C/C(=O)Nc1ccc2ncnc(Nc3ccc(OCc4cccc(F)c4)c(Cl)c3)c2c1OC1CC1` [Example 41, (R,E)-N-(4-((3-chloro-4-((3-fluorobenzyl)oxy)phenyl)amino)-5-cyclopropoxyquinazolin-6-yl)-3-(1-methylpyrrolidone-2-yl)acrylamide] showed an IC50 of less than 10 nM. Moreover, in data set [1], the GI50 was in the range of 1 to 5 nM.

For the compound `CN1CCC[C@@H]1/C=C/C(=O)Nc1ccc2ncnc(Nc3ccc(OCc4ccccn4)c(Cl)c3)c2c1OCC1CC1` [Example 38, (R,E)-N-(4-((3-chloro-4-(pyridin-2-ylmethoxy)phenyl)amino)-5-(cyclopropylmethoxy)quinazolin-6-yl)-3-(1-methylpyrrolidone-2-yl)acrylamide], the IC50 at HER2 kinase and at EGFR^WT kinase was less than 10 nM throughout. In data set [1], the GI50 was in the range of 1 to 5 nM.

Turning to `[2H]C([2H])([2H])Oc1c(NC(=O)/C=C/CN(C)C)ccc2ncnc(Nc3ccc(OCc4ccccn4)c(Cl)c3)c12` [Example 36, (E)-N-(4-((3-chloro-4-(pyridin-2-ylmethoxy)phenyl)amino)-5-(methoxy-d3)quinazolin-6-yl)-4-(dimethylamino)but-2-enamide], the IC50 at HER2 kinase and at EGFR^WT kinase was less than 10 nM in each case. Moreover, in data set [1], the GI50 lay within 1 to 5 nM.

Consider `COc1c(NC(=O)/C=C/CN(C)C2CCC2)ccc2ncnc(Nc3ccc(OCc4ccccn4)c(Cl)c3)c12` [Example 3, (E)-N-(4-((3-chloro-4-(pyridin-2-ylmethoxy)phenyl)amino)-5-methoxyquinazolin-6-yl)-4-(cyclobutyl(methyl)amino)but-2-enamide], for which the IC50 on HER2 kinase and against EGFR^WT kinase was less than 10 nM throughout. Also, the GI50 in data set [1] is 1 to 5 nM.

Turning to `COc1c(NC(=O)/C=C/[C@H]2CCCN2C(C)C)ccc2ncnc(Nc3ccc(OCc4cccc(F)c4)c(Cl)c3)c12` [Example 18, (R,E)-N-(4-((3-chloro-4-(3-fluorobenzyloxy)phenyl)amino)-5-methoxyquinazolin-6-yl)-3-(1-isopropylpyrrolidine-2-yl)acrylamide], the 50% inhibitory concentration (IC50) against HER2 kinase and against EGFR^WT kinase was less than 10 nM each time. Also, in data set [1], the GI50 was 1 to 5 nM.

The compound `CN1CCC[C@@H]1/C=C/C(=O)Nc1ccc2ncnc(Nc3ccc(OCc4ccccn4)c(Cl)c3)c2c1` [Control compound 1, reference compound] showed a Cl_obs in data set [2] (IV 3 mg/kg) of 72.7 ± 7.1 mL/min/kg. Moreover, in data set [2] (setting [3]), the AUC(0-inf) was 693 ± 72 ng·h/mL, the AUC(0-t) came to 678 ± 74 ng·h/mL, the Vd was found to be 31 ± 4.6 L/kg and the half-life is 4.91 ± 0.28 h. Besides, the “oral absorption (in words)” value in data set [2] (administrated orally) is on record as “hardly absorbed”.

`COc1c(NC(=O)/C=C/CN2CCCCC2)ccc2ncnc(Nc3ccc(OCc4ccccn4)c(Cl)c3)c12` [Example 44, (E)-N-(4-((3-chloro-4-(pyridin-2-ylmethoxy)phenyl)amino)-5-methoxyquinazolin-6-yl)-4-(piperidin-1-yl)but-2-enamide] gave an IC50 at HER2 kinase of less than 10 nM.

Take `COc1c(NC(=O)/C=C/CN2CCCC2)ccc2ncnc(Nc3ccc(OCc4ccccn4)c(Cl)c3)c12` [Example 43, (E)-N-(4-((3-chloro-4-(pyridin-2-ylmethoxy)phenyl)amino)-5-methoxyquinazolin-6-yl)-4-(pyrrolidine-1-yl)but-2-enamide]: the IC50 on HER2 kinase was less than 10 nM.
